Source: patent US11137396B2, “In vitro assays for assessing cell aging” (METAFORA BIOSYSTEMS, priority 2014, dated 2021)

Tested on: hMSCs derived from ES cells
Assay: XPR1/Glut1 ratio in senescence accelerated-model induced by mitomycin C (RBD labelling, flow cytometry)
Assay type: cell-based, human
Conditions: 1 or 10 μg/mL MMC for 3 hours, then 4 additional days; ES-derived hMSC; FIG. 5
Description: 80% confluent hMSCs derived from ES cells were treated for 3 hours with 1 or 10 μg/mL of mitomycin C (MMC, Sigma) or none (control cells). After the pulse of MMC, the cells were washed twice with PBS, detached with TrypLE Express for 5 minutes à 37° C. and re-plated in flasks for 4 additional days at the end of which the cells were detached for RBD labelling and the doubling time (h) was determined by counting.
3·10^4 cells were used for each binding and were transferred into a 96-well V-shape microplate. RBDs were premixed pairwise (Glut1.RBD.mouseFc and Xeno.RBD.rabbitFc) in culture medium containing 0.1% sodium azide and 1 mM EDTA. RBDs were added to hMSCs and incubated at 37° C. for 20 minutes. Cells were washed once with buffer B (PBS/2% FCS/0.1% sodium azide/1 mM EDTA) and then incubated with Alexa Fluor 647 goat anti-rabbit IgG (Life Technologies, 1/1 000) and R-PE goat anti-mouse IgG1 (Life technologies, 1/100) in buffer B. After 30 minutes of incubation at 4° C. in the dark, the cells were washed twice and resuspended in buffer B before flow cytometry analysis. Fluorescent signals were acquired on a FACSVerse flow cytometer (BD Biosciences) with 405, 488 and 640 nm excitation, and data analysis was performed using Flowjo software (Tree Star Inc.).
“Fluorescence minus One” controls were used to establish background level in RBD channels (R-PE and AF647). […]

For `CO[C@@]12[C@H](COC(N)=O)C3=C(C(=O)C(C)=C(N)C3=O)N1C[C@@H]1N[C@@H]12` [Mitomycin C, mitomycin C], the “XPR1/Glut1 ratio normalized to the control condition” value was “increases the XPR1/Glut1 ratio in a dose-dependant manner”.
